From patent publication US9144238B2, “Active compound combinations” (BAYER INTELLECTUAL PROPERTY GMBH, priority 2011, dated 2015)
Read-outs that look alike come from different tables or passages of the source.

How the values were obtained:
Alternaria solani = test: whole plant or invertebrate; format: in vivo
[1] = pH 2.3
Protocol: (§3) Measurement of log P values was performed according EEC directive 79/831 Annex V.A8 by HPLC (High Performance Liquid
(§4) Chromatography) on reversed phase columns with the following methods:
(§5) ^[a]Measurement was done at pH 2.3 with 0.1% phosphoric acid and acetonitrile as eluent.

Sphaerotheca fuliginea = test: Sphaerotheca test (cucumbers)/preventive; format: in vivo; details: Table 13, 50 ppm a.i.
Protocol: (§1) To produce a suitable preparation of active compound, 1 part by weight of active compound is mixed with the stated amounts of solvent and emulsifier, and the concentrate is diluted with water to the desired concentration.
To test for preventive activity, young plants are sprayed with the preparation of active compound at the stated rate of application. After the spray coating has dried on, the plants are inoculated with an aqueous spore suspension of Sphaerotheca fuliginea. The plants are then placed in a greenhouse at approximately 23° C. and a relative atmospheric humidity of approximately 70%.
The test is evaluated 7 days after the inoculation. 0% means an efficacy which corresponds to that of the untreated control, while an efficacy of 100% means that no disease is observed.
(§2) The test is evaluated 10 days after the inoculation. 0% means an efficacy which corresponds to that of the untreated control, while an efficacy of 100% means that no disease is observed.

Phytophthora infestans = test: whole plant or invertebrate; format: in vivo; details: Phytophthora infestans, 72 h, tomatoes
Venturia inaequalis = test: Venturia test (apples)/preventive; format: in vivo; details: Venturia inaequalis, 240 h, read-out: Efficacy in % found
Protocol: as §1
To test for preventive activity, young plants are sprayed with the preparation of active compound at the stated rate of application. After the spray coating has dried on, the plants are inoculated with an aqueous conidia suspension of the causal agent of apple scab (Venturia inaequalis) and then remain for 1 day in an incubation cabinet at approximately 20° C. and a relative atmospheric humidity of 100%.
The plants are then placed in a greenhouse at approximately 21° C. and a relative atmospheric humidity of approximately 90%.
as §2

physchem = details: pH 2.7
Protocol: as §3, §4, §5

[2] = Alternaria solani, 72 h, read-out: Efficacy in % found

## C#CCOc1cccc(Cl)c1C1CC(c2csc(C3CCN(C(=O)Cn4nc(C(F)F)cc4C(F)F)CC3)n2)=NO1 (stereo not shown) [(I-6), 2-[3,5-bis(difluoromethyl)-1H-pyrazol-1-yl]-1-[4-(4-{5-[2-chloro-6-(prop-2-yn-1-yloxy)phenyl]-4,5-dihydro-1,2-oxazol-3-yl}-1,3-thiazol-2-yl)piperidin-1-yl]ethanone]
Alternaria solani; [2]
  pest or weed control at 25 ppm: 30%
  pest or weed control at 50 ppm: 35%
  pest or weed control at 100 ppm: 41%
Alternaria solani; in vivo
  Efficacy in % found: 29%
[1]
  chromatographic logP: 3.51
Sphaerotheca fuliginea
  Efficacy in % found: 0%
Phytophthora infestans; read-out: Efficacy in % found, Table 4, 0.005 ppm a.i.
  pest or weed control at 0.005 ppm: 35%
Phytophthora infestans; read-out: Efficacy in % found, Table 5, 0.0025 ppm a.i.
  pest or weed control at 0.0025 ppm: 73%
Venturia inaequalis; Table 10, 25 ppm a.i.
  pest or weed control at 25 ppm: 0%
Venturia inaequalis; Table 10, 100 ppm a.i.
  pest or weed control at 100 ppm: 4%
Venturia inaequalis; Table 11, 50 ppm a.i.
  pest or weed control at 50 ppm: 13%
Venturia inaequalis; Table 11, 100 ppm a.i.
  pest or weed control at 100 ppm: 38%
physchem
  chromatographic logP: 3.4
